For assay [1], the system named is DU145 cell xenograft. Kind of assay: Antitumor action using prostate cancer xenograft model. Type of assay: in vivo, BALB/c nu/nu mouse. To be noted: subcutaneously administered, suspended in 0.5 w/v % carboxycellulose; tumor volume. From the text: A prostate cancer xenograft model was produced as shown below.
DU145 cells (4×10^6 cells) were mixed with BD Matrigel Basememt Membrane Matrix High Concentration (Becton, Dickinson and Company), and subcutaneously transplanted to the back of BALB/c nu/nu mouse. After transplantation, the tumor was isolated when it reached a volume of about 200 mm^3, and subcutaneously transplanted into the back of a different BALB/c nu/nu mouse. This operation was repeated three times to generate a tumor derived from DU145 cells that grow stably. A model mouse for the evaluation of the compound was prepared by finely cutting the in vivo passaged tumor into about 10 mm^3, and subcutaneously transplanting same into the back of a BALB/c nu/nu mouse.
The compound of Example 1 was suspended in 0.5 w/v % sterile carboxycellulose (Wako Pure Chemical Industries, Ltd.), and subcutaneously administered to the back. The volume of the tumor was calculated using the formula of (long diameter)×(short diameter)^2×0.5.

Assay [2] concerns the target T1, silkworm recombinant PCA-1 (Homo sapiens, UniProt Q96Q83).
T1 construct: made in house; host or cells: silkworm
T1 sequence (Q96Q83 1-286): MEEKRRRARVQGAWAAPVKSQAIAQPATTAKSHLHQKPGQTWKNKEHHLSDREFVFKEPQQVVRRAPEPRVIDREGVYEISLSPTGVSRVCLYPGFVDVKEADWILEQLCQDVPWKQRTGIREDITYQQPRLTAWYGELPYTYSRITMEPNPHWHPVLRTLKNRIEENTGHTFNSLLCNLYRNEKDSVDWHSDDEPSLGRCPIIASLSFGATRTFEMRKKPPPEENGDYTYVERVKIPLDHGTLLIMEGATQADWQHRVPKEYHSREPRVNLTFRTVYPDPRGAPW
The assay can be described thus: Evaluation of PCA-1 inhibitory activity (demethylation of 3-methyl cytosine-containing oligo DNA, real-time PCR). Type of assay: biochemical. Particulars: 37° C., 1 hr; for inhibition at 1 µM: test compound 1 μM; for inhibition at 10 µM: test compound 10 μM. As to the method: To an enzyme reaction solution (50 mM trishydrochloric acid buffer (pH 8.0), 2 mM ascorbic acid, 100 μM oxoglutaric acid, 40 μM ferric sulfate) containing 80 fmol 3-methyl cytosine-containing oligo DNA as a substrate were added a test compound (10 μM, 1 μM) and 4 ng silkworm recombinant PCA-1, and the mixture was incubated at 37° C. for 1 hr. After completion of the reaction, the enzyme reaction solution was 20-fold diluted with water to quench the reaction. Using 2 μL thereof, real-time PCR (Bio-Rad iQ SYBR Green Supermix) was performed in a 20 μL reaction system. The analytical curve was formed using a dilution series of the non-methylated oligoDNA. The primers used were forward primer 24 bases and reverse primer 22 bases. Reaction conditions: 95° C., 10 seconds→40 cycles of 95° C., 5 seconds, 61° C., 30 seconds, and 72° C., 15 seconds→95° C., 1 min→55° C., 1 min→55° C., 10 seconds, after which increased by 0.5° C. to 95° C. for 10 seconds→preserved at 25° C.
The degree of demethylation in the presence or absence of the test compound was compared and the inhibitory activity was evaluated.
For orientation: In qPCR the cycle at which signal appears reflects the starting amount.

Assay [3] concerns DU145 (prostate cancer cell). The assay can be described thus: Cancer cell proliferation suppressive action, DU145 (WST-1). To be noted: Homo sapiens, read-out: DU145 proliferation inhibitory activity (%). The format is cell-based. How it is done:
cell line used: DU145 (prostate cancer cell: Institute of Development, Aging and Cancer, Tohoku University, Cell Resource Center for Biomedical Research)
evaluation of scaffolding dependency growth suppressive action:
The cells were plated on a 96 well plate at 5×10^3 cells/well/90 μL, and cultured overnight. The test compound (10 μM) was added and, after culture for 48 hr, a 1:9 mixture of aqueous 1-methoxy-5-methylphenazinium methylsulfate (PMS) solution and 2-(4-iodophenyl)-3-(4-nitrophenyl)-5-(2,4-disulfophenyl)-2H-tetrazolium, monosodium salt (WST-1)/20 mM 4-(2-hydroxyethyl)-1-piperazineethanesulfonic acid (HEPES) solution (DOJIN) was added by 10 μL, and the absorbance was measured at 450 nm 2 hr later. As a control wavelength, 630 nm was used.
On the technique in general: Tetrazolium assays rely on reduction of a dye to a coloured formazan, in cell work by metabolically active cells.

The structures appear in SMILES notation. Like-named read-outs stand apart in the source and are kept apart here.

As to `Cc1ccc2[nH]c(-n3nc(C)c(Cc4ccccc4)c3O)nc2c1` [Example 1, 1-(5-methyl-1H-benzimidazol-2-yl)-3-methyl-4-(phenylmethyl)-1H-pyrazol-5-ol], the “antitumor action in a DU145 cell xenograft model (FIG. 1)” value in assay [1] is “antitumor action”. Besides, in assay [2], the inhibition at 1 µM is 24% and the inhibition at 10 µM was 81%. In addition, in assay [3] (DU-145, test compound 10 μM, culture for 48 hr), the inhibition at 10 µM is 60%.
Take `Cc1nn(-c2nc3cc(Cl)ccc3[nH]2)c(O)c1Cc1ccccc1` [Example 3, 1-(5-chloro-1H-benzimidazol-2-yl)-3-methyl-4-(phenylmethyl)-1H-pyrazol-5-ol]: in assay [2], the inhibition at 1 µM came out at 21% and the inhibition at 10 µM is 60%.
For `Cc1nn(-c2nc3cc(C(F)(F)F)ccc3[nH]2)c(O)c1Cc1ccccc1` [Example 4, 3-methyl-4-(phenylmethyl)-1-(5-trifluoromethyl-1H-benzimidazol-2-yl)-1H-pyrazol-5-ol], in assay [2], the inhibition at 1 µM is 50% and the inhibition at 10 µM was 82%.
In the case of `Cc1nn(-c2nc3cc(C(C)(C)C)ccc3[nH]2)c(O)c1Cc1ccccc1` [Example 5, 1-[5-(1,1-dimethylethyl)-1H-benzimidazol-2-yl]-3-methyl-4-(phenylmethyl)-1H-pyrazol-5-ol], in assay [2], the inhibition at 1 µM turned out to be 50% and the inhibition at 10 µM turned out to be 91%.
With `Cc1ccc2[nH]c(-n3nc(C)c(Cc4ccc5ccccc5c4)c3O)nc2c1` [Example 11, 3-methyl-1-(5-methyl-1H-benzimidazol-2-yl)-4-(2-naphthylmethyl)-1H-pyrazol-5-ol], in assay [2], the inhibition at 1 µM came out at 36% and the inhibition at 10 µM is 82%.
Take `Cc1nn(-c2nc3ccccc3[nH]2)c(O)c1C` [Example 13]: in assay [2], the inhibition at 1 µM was 19% and the inhibition at 10 µM is 76%. For the same molecule, in assay [3] (DU-145, 48 h), the inhibition at 10 µM was found to be 22%.
For `Cc1nn(-c2nc3ccccc3[nH]2)c(O)c1Cc1ccccc1` [Example 14], the inhibition at 1 µM in assay [2] was determined as 35%. Besides, the inhibition at 10 µM worked out at 80% in assay [2] and 45% in assay [3] (DU-145, 48 h).
`Cc1cc(O)n(-c2nc3ccccc3[nH]2)n1` [Example 15]: in assay [2], the inhibition at 1 µM is -1% and the inhibition at 10 µM was determined as 76%.
Taken in the same sequence, the figures for `Cc1ccc2[nH]c(-n3nc(C)c(C)c3O)nc2c1` [Example 17] were 25% and 76%.
Taken in the same sequence, the figures for `Cc1nn(-c2nc3ccccc3[nH]2)c(O)c1-c1ccccc1` [Example 18] were 27% and 74%.
For the molecule `Cc1nn(-c2nc3ccccc3[nH]2)c(O)c1Cc1ccc2ccccc2c1` [Example 19], in assay [2], the inhibition at 1 µM came out at 38% and the inhibition at 10 µM was determined as 76%.
Regarding `Cc1nn(-c2nc3ccccc3[nH]2)c(O)c1Cc1ccc(C(F)(F)F)cc1` [Example 24], in assay [2], the inhibition at 1 µM came to 61% and the inhibition at 10 µM came to 67%.
Taken in the same sequence, the figures for `Cc1nn(-c2nc3ccccc3[nH]2)c(O)c1Cc1ccc(F)cc1` [Example 25] were 39% and 68%.
As to `COc1ccc(Cc2c(C)nn(-c3nc4ccccc4[nH]3)c2O)cc1` [Example 31], in assay [2], the inhibition at 1 µM came to 47% and the inhibition at 10 µM is 85%.
As to `Cc1ccc2[nH]c(-n3nc(C)c(Cc4ccc(F)cc4)c3O)nc2c1` [Example 32], in assay [2], the inhibition at 1 µM was 49% and the inhibition at 10 µM came out at 81%.
Taken in the same sequence, the figures for `Cc1ccc2[nH]c(-n3nc(C)c(Cc4ccccc4Cl)c3O)nc2c1` [Example 33] were 54% and 82%.
Regarding `COc1ccc(Cc2c(C)nn(-c3nc4cc(C)ccc4[nH]3)c2O)cc1` [Example 34], in assay [2], the inhibition at 1 µM was 49% and the inhibition at 10 µM was 80%.
For `Cc1nn(-c2nc3cc(-c4ccc(Cl)cc4)ccc3[nH]2)c(O)c1Cc1ccccc1` [Example 35], in assay [2], the inhibition at 1 µM worked out at 25% and the inhibition at 10 µM was 77%.
As for `Cc1nn(-c2nc3cc(-c4ccccc4)ccc3[nH]2)c(O)c1Cc1ccccc1` [Example 37], in assay [2], the inhibition at 1 µM is 38% and the inhibition at 10 µM was found to be 64%.
With `Cc1ccc(-c2ccc3[nH]c(-n4nc(C)c(Cc5ccccc5)c4O)nc3c2)cc1` [Example 40], in assay [2], the inhibition at 1 µM was 21% and the inhibition at 10 µM amounted to 61%.
`Cc1ccc2[nH]c(-n3nc(C)c(-c4ccccc4)c3O)nc2c1` [Example 42]: in assay [2], the inhibition at 1 µM came out at 37% and the inhibition at 10 µM was 65%.
As to `CCCCCCc1c(C)nn(-c2nc3cc(C)ccc3[nH]2)c1O` [Example 45], in assay [2], the inhibition at 1 µM was 43% and the inhibition at 10 µM was found to be 81%.
Taken in the same sequence, the figures for `Cc1ccc2[nH]c(-n3nc(C)c(CC4CCCCC4)c3O)nc2c1` [Example 46] were 47% and 81%.
